These results are taken from patent publication US9115147B2, “Tricyclic derivatives and their pharmaceutical use and compositions” (Cephalon, Inc., priority 2009, dated 2015).

Structures are written as SMILES. Where two headings read alike, the source gives them in different places.

One experiment concerns the target T1, human 5-HT6 receptor (Homo sapiens, UniProt P50406).
T1 construct: host or cells: CHO-K1 cells, stably transfected; membranes prepared in house
As to the kind of experiment: Human 5-HT6 Receptor Binding Assay ([3H]LSD, scintillation beads). Conditions: membranes of CHO-K1 cells with recombinant human 5-HT6 receptor, 4 nM [3H]LSD. The method, boiled down: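 Membranes from CHO-K1 cells stably expressing human 5-HT6, 1.75 μg protein/well with scintillation beads, in 50 mM Tris pH 7.4, 4 mM CaCl2, saponin, ascorbic acid. Nonspecific binding with 10 μM serotonin. IC50 from variable-slope fit; Ki by Cheng-Prusoff.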

The test system of experiment [1] is rats. Conditions: compared to an untreated control group; cited from earlier work.
In experiment [2] the test system is rats. Conditions: rat model of tonic, persistent pain; cited from earlier work.
[3] abbreviates: Cheng-Prusoff, read-out: Human 5-HT6 Ki app.

T1 sequence (P50406 whole entry): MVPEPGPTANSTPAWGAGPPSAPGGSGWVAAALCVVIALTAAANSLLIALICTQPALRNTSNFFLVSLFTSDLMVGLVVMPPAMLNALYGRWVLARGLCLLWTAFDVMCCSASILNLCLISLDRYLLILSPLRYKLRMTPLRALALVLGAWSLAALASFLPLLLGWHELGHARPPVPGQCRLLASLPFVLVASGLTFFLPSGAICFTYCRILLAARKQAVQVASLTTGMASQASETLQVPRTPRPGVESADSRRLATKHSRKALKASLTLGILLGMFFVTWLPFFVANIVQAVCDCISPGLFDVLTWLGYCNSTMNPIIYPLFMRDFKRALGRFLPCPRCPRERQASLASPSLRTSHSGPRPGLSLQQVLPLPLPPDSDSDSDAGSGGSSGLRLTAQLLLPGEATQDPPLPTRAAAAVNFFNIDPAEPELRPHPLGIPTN

In the case of `CC(C)CN1CCC2c3ccc(S(=O)(=O)c4ccccc4)cc3OCC21` (single isomer, unassigned) [Example 91, 3-(2-methylpropyl)-7-(phenylsulfonyl)-1,2,3,3a,4,9b-hexahydrochromeno[3,4-b]pyrrole], at human 5-HT6 receptor (setting [3]), the Ki was less than 500 nM.
As for `COCCN1CCC2c3ccc(S(=O)(=O)c4ccccc4)cc3OCC21` (single isomer, unassigned) [Example 92, 3-(2-methoxyethyl)-7-(phenylsulfonyl)-1,2,3,3a,4,9b-hexahydrochromeno[3,4-b]pyrrole], the Ki on human 5-HT6 receptor (setting [3]) is less than 500 nM.
For the compound `O=S(=O)(c1ccccc1)c1ccc2c(c1)OCC1C2CCN1CCCO` (single isomer, unassigned) [Example 93, 3[7-(phenylsulfonyl)-1,3a,4,9b-tetrahydrochromeno[3,4-b]pyrrol-3(2H)-yl]propan-1-ol], on human 5-HT6 receptor (setting [3]), the Ki is less than 500 nM.
Same read-out and setting: the result for `CC(C)CCCN1CCC2c3ccc(S(=O)(=O)c4ccccc4)cc3OCC21` (single isomer, unassigned) [Example 94, 3-(4-methylpentyl)-7-(phenylsulfonyl)-1,2,3,3a,4,9b-hexahydrochromeno[3,4-b]pyrrole] reads less than 500 nM; that for `O=S(=O)(c1ccccc1)c1ccc2c(c1)OCC1C2CCN1Cc1ccccc1` (single isomer, unassigned) [Example 95, 3-benzyl-7-(phenylsulfonyl)-1,2,3,3a,4,9b-hexahydrochromeno[3,4-b]pyrrole], less than 500 nM; that for `O=S(=O)(c1ccccc1)c1ccc2c(c1)OCC1C2CCN1CCc1ccccc1` (single isomer, unassigned) [Example 96, 3-(2-phenylethyl)-7-(phenylsulfonyl)-1,2,3,3a,4,9b-hexahydrochromeno[3,4-b]pyrrole], less than 500 nM.
Take `O=S(=O)(c1ccccc1)c1ccc2c(c1)OCC1C2CCN1CCO` (single isomer, unassigned) [Example 97, 2-[7-(phenylsulfonyl)-1,3a,4,9b-tetrahydrochromeno[3,4-b]pyrrol-3(2H)-yl]ethanol]: the Ki on human 5-HT6 receptor (actual data, read-out: Human 5-HT6 Ki) is 221 nM; at human 5-HT6 receptor (setting [3]), less than 500 nM.
Consider `CC(C)CN1CCC2c3ccc(S(=O)(=O)c4ccccc4)cc3OCC21` (single isomer, unassigned) [Example 98, 3-(2-methylpropyl)-7-(phenylsulfonyl)-1,2,3,3a,4,9b-hexahydrochromeno[3,4-b]pyrrole], for which the Ki at human 5-HT6 receptor (setting [3]) is greater than 1000 nM.
On the same count and under the same terms, the result for `COCCN1CCC2c3ccc(S(=O)(=O)c4ccccc4)cc3OCC21` (single isomer, unassigned) [Example 99, 3-(2-methoxyethyl)-7-(phenylsulfonyl)-1,2,3,3a,4,9b-hexahydrochromeno[3,4-b]pyrrole] reads greater than 1000 nM; that for `O=S(=O)(c1ccccc1)c1ccc2c(c1)OCC1C2CCN1CCCO` (single isomer, unassigned) [Example 100, 3-[7-(phenylsulfonyl)-1,3a,4,9b-tetrahydrochromeno[3,4-b]pyrrol-3(2H)-yl]propan-1-ol], less than 500 nM; that for `CC(C)CCCN1CCC2c3ccc(S(=O)(=O)c4ccccc4)cc3OCC21` (single isomer, unassigned) [Example 101, 3-(4-methylpentyl)-7-(phenylsulfonyl)-1,2,3,3a,4,9b-hexahydrochromeno[3,4-b]pyrrole], greater than 1000 nM.
For `O=S(=O)(c1ccccc1)c1ccc2c(c1)OCC1C2CCN1Cc1ccccc1` (single isomer, unassigned) [Example 102, 3-benzyl-7-(phenylsulfonyl)-1,2,3,3a,4,9b-hexahydrochromeno[3,4-b]pyrrole], the Ki on human 5-HT6 receptor (setting [3]) is greater than 1000 nM.
For the compound `O=S(=O)(c1ccccc1)c1ccc2c(c1)OCC1C2CCN1CCc1ccccc1` (single isomer, unassigned) [Example 103, 3-(2-phenylethyl)-7-(phenylsulfonyl)-1,2,3,3a,4,9b-hexahydrochromeno[3,4-b]pyrrole], at human 5-HT6 receptor (setting [3]), the Ki was greater than 1000 nM.
For `CC(C)Oc1cc(F)cc(S(=O)(=O)c2ccc3c(c2)OCC2NCCC32)c1` (single isomer, unassigned) [Example 108, 7-{[3-fluoro-5-(propan-2-yloxy)phenyl]sulfonyl}-1,2,3,3a,4,9b-hexahydrochromeno[3,4-b]pyrrole], the Ki at human 5-HT6 receptor (setting [3]) is less than 500 nM.
Take `CN1CCN(c2cccc3c(S(=O)(=O)c4ccccc4)c[nH]c23)CC1` [RO 4368554]: the “non-REM (NREM) sleep” value in the experiment with rats [1] is “increase”.
As for `COc1ccc(NS(=O)(=O)c2sc3ccc(Cl)cc3c2C)cc1N1CCNCC1` [SB-271046], in the experiment on rats [2], the antinociceptive effect entry is given as “short-lived, antinociceptive effect”.
